# Test results from patent US8975249B2, “Heterocyclic compounds and uses thereof” (Celgene Avilomics Research, Inc., priority 2010, dated 2015).
# pEC50, pIC50: −log10 of the molar value. Where two headings read alike, the source gives them in different places.
# Key:
# EGFR (WT) = EGFR (WT) (Homo sapiens (Human), UniProt P00533); assay: Omnia biochemical assay, EGFR-WT active enzyme; details: [EGFR-WT]=5 nM, [ATP]=15 uM, 30 min pre-incubation
# Protocol: Kinase reactions were started with the addition of 45 μL of the ATP/Tyr-Sox peptide substrate mix and monitored every 71 seconds for 60 minutes at λex360/λem485 in a Synergy^4 plate reader from BioTek (Winooski, Vt.).
# The compound numbers correspond to the compound numbers in Table 1.
# [1] = target: EGFR double mutation L858R/T790M (H1975 cells) (Homo sapiens (Human), UniProt P00533, L858R/T790M); assay: Phospho-EGFR signaling immunoblot in H1975 cells; type: cell-based; details: for pEC50: H1975 cells, 1 hr treatment, phospho-EGFR (Y1068)
# Protocol: (§1) A431 human epidermoid carcinoma, H1975 human NSCLC and HCC827 human NSCLC adenocarcinoma cells were obtained from the American Type Culture Center (Manassas, Va.). A431 cells were grown in DMEM (Invitrogen, Carlsbad, Calif.) supplemented with 10% FBS (HyClone, South Logan, Utah) and 1% Penicillin-Streptomycin (P/S, Lonza, Walkersville, Md.).
# (§2) All primary antibodies were obtained from Cell Signaling (Danvers, Mass.) and used at 1:1000. Secondary antibodies were used at 1:10,000. Goat anti-mouse IgG IRDye 800CW antibody was obtained from LiCor Biosciences (Lincoln, Nebr.) and goat anti-rabbit IgG Alexa Fluor 680 was obtained from Invitrogen.
# (§3) Cells were grown in 12-well plates (Corning, Coring, N.Y.) to 90% confluence and then incubated in low-serum (0.1% FBS) media for 16-18 hr. […] A431 cells were then stimulated with 50 ng/ml EGF (Peprotech, Rocky Hill, N.J.) for 15 min. After treatment, cell monolayers were washed with cold PBS (Invitrogen) and immediately lysed by scrapping into 60 uL cold Cell Extraction Buffer (Invitrogen) supplemented with Complete Protease inhibitors (Roche, Indianapolis, Ind.) and PhosphoSTOP (Roche) phosphatase inhibitors.
# (§4) Phospho-protein signals were quantitated using Odyssey Infrared Imaging (Li-Cor Biosciences).
# (§5) To assess phosphor-EGFR signaling, blots were probed with rabbit anti-Phospho-EGFR (Y1068) and mouse total anti-EGFR antibodies. Phospho-EGFR signal was normalized to total EGFR expression for each sample. […] Normalized data was fitted using a sigmoidal curve analysis program (Graph Pad Prism version 5) with variable Hill slope to determine the EC50 values.
# (§6) The compound numbers recited in Table 4 correspond to the compound numbers in Table 1.
# WT EGFR (A431 cells) = WT EGFR (A431 cells) (Homo sapiens (Human), UniProt P00533); assay: Phospho-EGFR signaling immunoblot in A431 cells (WT EGFR); type: cell-based; details: 1 hr treatment, EGF stimulated, phospho-EGFR (Y1068)
# Protocol: as §1, §2, §3, §4, §5, §6
# [2] = system: HCC827 cells (EGFR delE746-A750); assay: Cell proliferation (CellTiter Glo), HCC827 cells
# [3] = system: H1975 cells (EGFR L858R/T790M); assay: Cell proliferation (CellTiter Glo), H1975 cells
# [4] = proliferation GI50 WT EGFR / HCC827
# [5] = proliferation GI50 WT EGFR / H1975
pIC50 (EGFR (WT)),pEC50 [1],Ratio WT/mutant (H1975) ([1]; signaling EC50 WT EGFR / H1975),pEC50 (WT EGFR (A431 cells)),SMILES,"Ratio WT/mutant (HCC827) [2, 4]","Ratio WT/mutant (H1975) [3, 5]",Ratio WT/mutant (HCC827) [2],Ratio WT/mutant (H1975) [3]
7.00 to 7.52,< 6.00,>1,< 6.00,"C=CC(=O)Nc1cccc(Nc2nc(Nc3ccc(N4CCN(S(C)(=O)=O)CC4)cc3OC)ncc2Cl)c1 [Compound I-41, N-(3-(5-chloro-2-(2-methoxy-4-(4-(methylsulfonyl)piperazin-1-yl)phenylamino)pyrimidin-4-ylamino)phenyl)acrylamide]",>20,>1,–,–
6.52 to 7.00,–,–,–,"C=CC(=O)Nc1cccc(Oc2nc(Nc3ccc(N4CCN(C(=O)CC(C)(C)C)CC4)cc3OC)ncc2Cl)c1 [Compound I-23, N-(3-(5-chloro-2-(4-(4-(3,3-dimethylbutanoyl)piperazin-1-yl)-2-methoxyphenylamino)pyrimidin-4-yloxy)phenyl)acrylamide]",>20,>1,–,–
8.00 to 9.00,–,–,–,"C=CC(=O)Nc1cccc(Nc2nc(Nc3ccc(N4CCN(C(=O)NC)CC4)cc3OC)ncc2C(F)(F)F)c1 [Compound I-28, 4-(4-(4-(3-acrylamidophenylamino)-5-(trifluoromethyl)pyrimidin-2-ylamino)-3-methoxyphenyl)-N-methylpiperazine-1-carboxamide]",>50,>5,–,–
8.00 to 9.00,–,–,< 6.00,"C=CC(=O)Nc1cccc(Oc2nc(Nc3ccc(N4CCN(S(N)(=O)=O)CC4)cc3OC)ncc2C(F)(F)F)c1 [Compound I-27, N-(3-(2-(2-methoxy-4-(4-sulfamoylpiperazin-1-yl)phenylamino)-5-(trifluoromethyl)pyrimidin-4-yloxy)phenyl)acrylamide]",>10,>1,–,–
7.52 to 8.00,–,–,< 6.00,"C=CC(=O)Nc1cccc(Nc2nc(Nc3ccc(N4CCN(C(=O)OC)CC4)cc3OC)ncc2C(F)(F)F)c1 [Compound I-29, methyl 4-(4-(4-(3-acrylamidophenylamino)-5-(trifluoromethyl)pyrimidin-2-ylamino)-3-methoxyphenyl)piperazine-1-carboxylate]",>15,>10,–,–
> 9.00,–,–,–,"C=CC(=O)Nc1cccc(Nc2nc(Nc3ccc(N4CCN(C(C)=O)CC4)cc3OC(F)F)ncc2C(F)(F)F)c1 [Compound I-32, N-(3-(2-(4-(4-acetylpiperazin-1-yl)-2-(difluoromethoxy)phenylamino)-5-(trifluoromethyl)pyrimidin-4-ylamino)phenyl)acrylamide]",–,–,–,–
< 6.00,–,–,–,"C=CC(=O)Nc1cccc(Oc2nc(Nc3ccc(N4CCN(C(=O)OC(C)(C)C)CC4)cc3OCC)ncc2Cl)c1 [Compound I-18, tert-butyl 4-(4-(4-(3-acrylamidophenoxy)-5-chloropyrimidin-2-ylamino)-3-ethoxyphenyl)piperazine-1-carboxylate]",>5,>1,–,–
7.52 to 8.00,–,–,–,"C=CC(=O)Nc1cccc(Oc2nc(Nc3ccc(N4CCOCC4)cc3OC(F)F)ncc2Cl)c1 [Compound I-36, N-(3-(5-chloro-2-(2-(difluoromethoxy)-4-morpholinophenylamino)pyrimidin-4-yloxy)phenyl)acrylamide]",>50,>25,–,–
6.52 to 7.00,–,–,–,"C=CC(=O)Nc1cccc(Nc2nc(Nc3ccc(N4CCCN(C(=O)C(F)(F)F)CC4)cc3OC)ncc2C(F)(F)F)c1 [Compound I-19, N-(3-(2-(2-methoxy-4-(4-(2,2,2-trifluoroacetyl)-1,4-diazepan-1-yl)phenylamino)-5-(trifluoromethyl)pyrimidin-4-ylamino)phenyl)acrylamide]",>10,>5,–,–
< 6.00,–,–,–,"C=CC(=O)Nc1cccc(Oc2nc(Nc3ccc(N4CCN(C(=O)OC(C)(C)C)CC4)cc3OC(F)(F)F)ncc2Cl)c1 [Compound I-47, tert-butyl 4-(4-(4-(3-acrylamidophenoxy)-5-chloropyrimidin-2-ylamino)-3-(trifluoromethoxy)phenyl)piperazine-1-carboxylate]",–,–,–,–
> 9.00,–,–,–,"C=CC(=O)Nc1cccc(Nc2nc(Nc3ccc(N4CCN(C(=O)CO)CC4)cc3OC(F)F)ncc2C(F)(F)F)c1 [Compound I-31, N-(3-(2-(2-(difluoromethoxy)-4-(4-(2-hydroxyacetyl)piperazin-1-yl)phenylamino)-5-(trifluoromethyl)pyrimidin-4-ylamino)phenyl)acrylamide]",–,–,–,–
–,–,–,–,"C=CC(=O)Nc1cccc(Nc2nc(Nc3ccc(N4CCN(C(=O)OC(C)(C)C)[C@H](C(=O)OC)C4)cc3OC)ncc2C(F)(F)F)c1 [Compound I-50, (S)-1-tert-butyl 2-methyl 4-(4-(4-(3-acrylamidophenylamino)-5-(trifluoromethyl)pyrimidin-2-ylamino)-3-methoxyphenyl)piperazine-1,2-dicarboxylate]",>50,>10,–,–
< 6.00,–,–,–,"C=CC(=O)Nc1cccc(Oc2nc(Nc3ccc(N4CCCN(C(=O)OC(C)(C)C)CC4)cc3OC)ncc2C(F)(F)F)c1 [Compound I-39, tert-butyl 4-(4-(4-(3-acrylamidophenoxy)-5-(trifluoromethyl)pyrimidin-2-ylamino)-3-methoxyphenyl)-1,4-diazepane-1-carboxylate]",>1,<1,–,–
7.00 to 7.52,7.00 to 8.00,–,–,"C=CC(=O)Nc1cccc(Oc2nc(Nc3ccc(N4CCOCC4)cc3OC(F)F)ncc2C(F)(F)F)c1 [Compound I-13, N-(3-(2-(2-(difluoromethoxy)-4-morpholinophenylamino)-5-(trifluoromethyl)pyrimidin-4-yloxy)phenyl)acrylamide]",>50,>10,–,–
8.00 to 9.00,–,–,< 6.00,"C=CC(=O)Nc1cccc(Oc2nc(Nc3ccc(N4CCN(C(C)=O)CC4)cc3OC)ncc2Cl)c1 [Compound I-9, N-(3-(2-(4-(4-acetylpiperazin-1-yl)-2-methoxyphenylamino)-5-chloropyrimidin-4-yloxy)phenyl)acrylamide]",>50,>5,–,–
7.52 to 8.00,–,–,–,"C=CC(=O)Nc1cccc(Nc2nc(Nc3ccc(N4CCCOCC4)cc3OC)ncc2C(F)(F)F)c1 [Compound I-38, N-(3-(2-(2-methoxy-4-(1,4-oxazepan-4-yl)phenylamino)-5-(trifluoromethyl)pyrimidin-4-ylamino)phenyl)acrylamide]",>5,>1,–,–
7.00 to 7.52,–,–,–,"C=CC(=O)Nc1cccc(Oc2nc(Nc3ccc(N4CCCOCC4)cc3OC)ncc2Cl)c1 [Compound I-37, N-(3-(5-chloro-2-(2-methoxy-4-(1,4-oxazepan-4-yl)phenylamino)pyrimidin-4-yloxy)phenyl)acrylamide]",>10,>1,–,–

SMILES,pIC50 (EGFR (WT)),pEC50 [1],Ratio WT/mutant (H1975) ([1]; signaling EC50 WT EGFR / H1975),pEC50 (WT EGFR (A431 cells)),"Ratio WT/mutant (HCC827) [2, 4]","Ratio WT/mutant (H1975) [3, 5]",Ratio WT/mutant (HCC827) [2],Ratio WT/mutant (H1975) [3]
"C=CC(=O)Nc1cccc(Oc2nc(Nc3ccc(N4CCN(C(=O)OC)CC4)cc3OC)ncc2C(F)(F)F)c1 [Compound I-20, methyl 4-(4-(4-(3-acrylamidophenoxy)-5-(trifluoromethyl)pyrimidin-2-ylamino)-3-methoxyphenyl)piperazine-1-carboxylate]",7.52 to 8.00,–,–,–,–,–,>15,>5
"C=CC(=O)Nc1cccc(Oc2nc(Nc3ccc(N4CCCN(C(=O)OC(C)(C)C)CC4)cc3OC)ncc2Cl)c1 [Compound I-43, tert-butyl 4-(4-(4-(3-acrylamidophenoxy)-5-chloropyrimidin-2-ylamino)-3-methoxyphenyl)-1,4-diazepane-1-carboxylate]",6.00 to 6.52,–,–,–,–,–,–,–
"C=CC(=O)Nc1cccc(Oc2nc(Nc3ccc(N4CCN(C(=O)OC(C)(C)C)CC4)cc3OC)ncc2C(F)(F)F)c1 [Compound I-42, tert-butyl 4-(4-(4-(3-acrylamidophenoxy)-5-(trifluoromethyl)pyrimidin-2-ylamino)-3-methoxyphenyl)piperazine-1-carboxylate]",6.00 to 6.52,–,–,–,–,–,–,–
